Laboratory results: US20240287089A1, “Preparation and Uses of 7-Azaindenoisoquinolines” (Purdue Research Foundation, priority 0001, published 2024)
Each block holds one compound with its values, some of them ahead of it.

What was measured:
[1] = Brain penetration and plasma/brain pharmacokinetics in combination with Temodar or Lynparza; settings: for Vd: iv, 10 mg/kg, Vss—obs
[2] = tested on: DU-145 (Prostate); test: NCI-60 cytotoxicity assay; assay type: cell-based, human; settings: Homo sapiens; Prostate DU-145, 48 h; read-out: Cytotoxicity GI50
Method: (§1) The antiproliferative activities of the indenoisquinoline compounds are determined in the NCI-60 cancer cell lines of the National Cancer Institute Developmental Therapeutics Program (NCI-DTP). […] Cancer cells are incubated with the test compounds at five concentrations ranging from 100 μM to 10 nM for 48 h. After the treated cancer cells are stained with sulforhodamine B dye, the percentage growth is plotted as a function of the common logarithm of the tested compound concentration. […] The approximate average of GI50 values across the entire panel of NCI-60 cancer cell lines for each compound is recorded as the MGM value.
(§2) NCI-60 Cytotoxicity Assay. Compounds were submitted to the National Cancer Institute Developmental Therapeutic Program to determine their growth-inhibitory potentials in NCI-60 cell lines. All compounds satisfied the pre-screening proceeded into the 5-dose cell viability assay, in which cells were treated for 48 h at 5 dosages ranging from 100 μM to 10 nM.

[3] = tested on: HCT-116 (Colon); test: NCI-60 cytotoxicity assay; assay type: cell-based, human; settings: Homo sapiens; Colon HCT-116, 48 h; read-out: Cytotoxicity GI50
Method: as §1, §2

[4] = tested on: HOP-62 (Lung); test: NCI-60 cytotoxicity assay; assay type: cell-based, human; settings: Homo sapiens; Lung HOP-62, 48 h; read-out: Cytotoxicity GI50
Method: as §1, §2

[5] = tested on: MCF7 (Breast); test: NCI-60 cytotoxicity assay; assay type: cell-based, human; settings: Homo sapiens; Breast MCF7, 48 h; read-out: Cytotoxicity GI50
Method: as §1, §2

[6] = tested on: OVCAR-3 (Ovarian); test: NCI-60 cytotoxicity assay; assay type: cell-based, human; settings: Homo sapiens; Ovarian OVCAR-3, 48 h; read-out: Cytotoxicity GI50
Method: as §1, §2

[7] = tested on: SN12C (Renal); test: NCI-60 cytotoxicity assay; assay type: cell-based, human; settings: Homo sapiens; Renal SN12C, 48 h; read-out: Cytotoxicity GI50
Method: as §1, §2

[8] = tested on: UACC-62 (Melanoma); test: NCI-60 cytotoxicity assay; assay type: cell-based, human; settings: Homo sapiens; Melanoma UACC-62, 48 h; read-out: Cytotoxicity GI50
Method: as §1, §2

[9] = tested on: SF-539 (CNS); test: NCI-60 cytotoxicity assay; assay type: cell-based; settings: Homo sapiens; CNS SF-539, 48 h; read-out: Cytotoxicity GI50
Method: as §1, §2

[10] = tested on: NCI-60 cancer cell lines; test: NCI-60 cytotoxicity assay, MGM; assay type: cell-based; settings: Homo sapiens; read-out: MGM (average GI50 across NCI-60 panel)
Method: as §1, §2

[11] = 10 mg/kg IV + Lynparza 100 mg/kg PO, 0.25 h
[12] = 10 mg/kg IV + Lynparza 100 mg/kg PO, 0.5 h
[13] = 10 mg/kg IV + Lynparza 100 mg/kg PO, 1 h
[14] = 10 mg/kg IV + Lynparza 100 mg/kg PO, 2 h
[15] = 10 mg/kg IV + Lynparza 100 mg/kg PO, 4 h
[16] = 10 mg/kg IV + Lynparza 100 mg/kg PO, 8 h
[17] = 10 mg/kg IV + Lynparza 100 mg/kg PO, 24 h
[18] = LMP744 20 mg/kg IV + Temador 125 mg/kg PO, 0.25 h
[19] = LMP744 20 mg/kg IV + Temador 125 mg/kg PO, 0.5 h
[20] = LMP744 20 mg/kg IV + Temador 125 mg/kg PO, 1 h
[21] = LMP744 20 mg/kg IV + Temador 125 mg/kg PO, 2 h
[22] = LMP744 20 mg/kg IV + Temador 125 mg/kg PO, 4 h
[23] = LMP744 20 mg/kg IV + Temador 125 mg/kg PO, 8 h
[24] = LMP744 20 mg/kg IV + Temador 125 mg/kg PO, 24 h
[25] = brain, 10 mg/kg IV + Lynparza 100 mg/kg PO
[26] = brain, LMP744 20 mg/kg IV + Temador 125 mg/kg
[27] = plasma, 10 mg/kg IV + Lynparza 100 mg/kg PO
[28] = plasma, LMP744 20 mg/kg IV + Temador 125 mg/kg
[29] = LMP400 10 mg/kg IV + Temador 125 mg/kg PO, 0.25 h
[30] = LMP400 10 mg/kg IV + Temador 125 mg/kg PO, 0.5 h
[31] = LMP400 10 mg/kg IV + Temador 125 mg/kg PO, 2 h
[32] = LMP400 10 mg/kg IV + Temador 125 mg/kg PO, 4 h
[33] = LMP400 10 mg/kg IV + Temador 125 mg/kg PO, 8 h
[34] = LMP400 10 mg/kg IV + Temador 125 mg/kg PO, 24 h
[35] = brain, LMP400 10 mg/kg IV + Temador 125 mg/kg PO
[36] = plasma, LMP400 10 mg/kg IV + Temador 125 mg/kg PO

Compound: COc1cc2c3c(n(CCCNCCO)c(=O)c2cc1OC)-c1cc2c(cc1C3=O)OCO2 [LMP744]
Brain Conc [1, 11]: 89 ± 19 nM
Brain/Plasma Conc Ratio [1, 11]: 0.46
Plasma Conc [1, 11]: 1356 ± 229 nM
Brain Conc [1, 12]: 780 ± 24 nM
Brain/Plasma Conc Ratio [1, 12]: 0.83
Plasma Conc [1, 12]: 940 ± 155 nM
Brain Conc [1, 13]: 825 ± 250 nM
Brain/Plasma Conc Ratio [1, 13]: 2.05
Plasma Conc [1, 13]: 402 ± 29 nM
Brain Conc [1, 14]: 850 ± 58 nM
Brain/Plasma Conc Ratio [1, 14]: 2.64
Plasma Conc [1, 14]: 322 ± 88 nM
Brain Conc [1, 15]: 548 ± 28 nM
Brain/Plasma Conc Ratio [1, 15]: 2.91
Plasma Conc [1, 15]: 188 ± 54 nM
Brain Conc [1, 16]: 557 ± 66 nM
Brain/Plasma Conc Ratio [1, 16]: 7.74
Plasma Conc [1, 16]: 72 ± 26 nM
Brain Conc [1, 17]: 457 ± 61 nM
Brain/Plasma Conc Ratio [1, 17]: 20.30
Plasma Conc [1, 17]: 13 ± 2 nM
Brain Conc [1, 18]: 1093 ± 168 nM
Brain/Plasma Conc Ratio [1, 18]: 0.49
Plasma Conc [1, 18]: 2238 ± 465 nM
Brain Conc [1, 19]: 1199 ± 243 nM
Brain/Plasma Conc Ratio [1, 19]: 0.89
Plasma Conc [1, 19]: 1854 ± 101 nM
Brain Conc [1, 20]: 1390 ± 145 nM
Brain/Plasma Conc Ratio [1, 20]: 1.35
Plasma Conc [1, 20]: 1027 ± 202 nM
Brain Conc [1, 21]: 1328 ± 188 nM
Brain/Plasma Conc Ratio [1, 21]: 2.49
Plasma Conc [1, 21]: 534 ± 143 nM
Brain Conc [1, 22]: 1272 ± 188 nM
Brain/Plasma Conc Ratio [1, 22]: 3.58
Plasma Conc [1, 22]: 355 ± 37 nM
Brain Conc [1, 23]: 1244 ± 78 nM
Plasma Conc [1, 23]: 139 ± 17 nM
Brain Conc [1, 24]: 955 ± 76 nM
Brain/Plasma Conc Ratio [1, 24]: 46
Plasma Conc [1, 24]: 21 ± 4 nM
AUClast [1, 25]: 5860 ng·h/g
Cmax [1, 25]: 373 ng/g
Tmax [1, 25]: 2.00 h
AUClast [1, 26]: 12185 ng·h/g
Cmax [1, 26]: 611 ng/g
Tmax [1, 26]: 1.00 h
AUCInf [1, 27]: 1535 ng·h/mL
AUClast [1, 27]: 1491 ng·h/mL
AUClast/D [1, 27]: 149 h·ng/mL per mg/kg
AUC—% Extrap—obs [1, 27]: 2.83%
C0 [1, 27]: 2072 ng/mL
Cl_obs [1, 27]: 109 mL/min/kg
MRTInf—obs [1, 27]: 4.33 h
T1/2 [1, 27]: 5.43 h
Vss—obs [1, 27]: 28.2 L/kg
AUCInf [1, 28]: 2881 ng·h/mL
AUClast [1, 28]: 2813 ng·h/mL
AUClast/D [1, 28]: 141 h·ng/mL per mg/kg
AUC—% Extrap—obs [1, 28]: 2.37%
C0 [1, 28]: 4973 ng/mL
Cl_obs [1, 28]: 116 mL/min/kg
MRTInf—obs [1, 28]: 4.09 h
T1/2 [1, 28]: 5.20 h
Vss—obs [1, 28]: 28.4 L/kg

Compound: COc1cc2c3c(n(CCCn4ccnc4)c(=O)c2cc1OC)-c1nc2c(cc1C3=O)OCO2 [G102, 6-(3-(1H-Imidazol-1-yl)propyl)-2,3-dimethoxy-5H-[1,3]dioxolo[4″,5″:5′,6′]pyrido[3′,2′:4,5]cyclopenta[1,2-c]isoquinoline-5,12(6H)-dione]
GI50 [2]: 58 nM
GI50 [3]: 310 nM
GI50 [4]: 29 nM
GI50 [5]: 26 nM
GI50 [6]: 33400 nM
GI50 [7]: 440 nM
GI50 [8]: 42 nM
GI50 [9]: 39 nM
GI50 [10]: 780 nM

Brain Conc [1, 11]: 14924 ± 107 nM
Brain/Plasma Conc Ratio [1, 11]: 4.58
Plasma Conc [1, 11]: 3258 ± 295 nM
Brain Conc [1, 12]: 12083 ± 1787 nM
Brain/Plasma Conc Ratio [1, 12]: 5.42
Plasma Conc [1, 12]: 2231 ± 419 nM
Brain Conc [1, 13]: 6670 ± 431 nM
Plasma Conc [1, 13]: 1787 ± 169 nM
Brain Conc [1, 14]: 3766 ± 408 nM
Brain/Plasma Conc Ratio [1, 14]: 2.73
Plasma Conc [1, 14]: 1381 ± 84 nM
Brain Conc [1, 15]: 2666 ± 265 nM
Brain/Plasma Conc Ratio [1, 15]: 2.83
Plasma Conc [1, 15]: 941 ± 190 nM
Brain Conc [1, 16]: 1162 ± 104 nM
Plasma Conc [1, 16]: 491 ± 53 nM
Brain Conc [1, 17]: 235 ± 76 nM
Plasma Conc [1, 17]: 111 ± 39 nM
Brain/Plasma Conc Ratio [1, 29]: 5.99
Plasma Conc [1, 29]: 2311 ± 274 nM
Brain Conc [1, 30]: 10074 ± 1157 nM
Brain/Plasma Conc Ratio [1, 30]: 5.20
Plasma Conc ([1]; LMP400 10 mg/kg IV + Temador 125 mg/kg PO, 1 h): 1944 ± 211 nM
Brain/Plasma Conc Ratio [1, 31]: 3.16
Plasma Conc [1, 31]: 1041 ± 57 nM
Brain Conc [1, 32]: 1722 ± 226 nM
Brain/Plasma Conc Ratio [1, 32]: 2.79
Plasma Conc [1, 32]: 617 ± 24 nM
Brain Conc [1, 33]: 919 ± 165 nM
Brain/Plasma Conc Ratio [1, 33]: 1.91
Plasma Conc [1, 33]: 481 ± 104 nM
Brain Conc [1, 34]: 177 ± 70 nM
Brain/Plasma Conc Ratio [1, 34]: 0.96
AUCInf [1, 25]: 20928 ng·h/g
AUClast [1, 25]: 19983 ng·h/g
AUC—% Extrap—obs [1, 25]: 4.51%
Cmax [1, 25]: 12173 ng/g
T1/2 [1, 25]: 6.01 h
AUCInf [1, 35]: 16590 ng·h/g
AUClast [1, 35]: 15811 ng·h/g
AUC—% Extrap—obs [1, 35]: 4.70%
Cmax [1, 35]: 9080 ng/g
MRTInf—obs [1, 35]: 5.67 h
T1/2 [1, 35]: 6.35 h
Tmax [1, 35]: 0.0830 h
concentration at 0.25 h ([1]; mouse, brain, intravenous, Brain Conc, LMP400 10 mg/kg IV + Temador 125 mg/kg PO, 0.25 h): 13800 ± 638 nM
concentration at 1 h ([1]; mouse, brain, intravenous, Brain Conc, LMP400 10 mg/kg IV + Temador 125 mg/kg PO, 1 h): 5360 ± 276 nM
concentration at 2 h ([1]; mouse, brain, intravenous, Brain Conc, LMP400 10 mg/kg IV + Temador 125 mg/kg PO, 2 h): 5290 ± 321 nM
concentration at 0.5 h ([1]; mouse, plasma, intravenous, Plasma Conc, LMP400 10 mg/kg IV + Temador 125 mg/kg PO, 0.5 h): 1940 ± 274 nM
Vd ([1]; mouse, plasma, plasma, 10 mg/kg IV + Lynparza 100 mg/kg PO): 10.4 L/kg
Vd ([1]; mouse, plasma, plasma, LMP400 10 mg/kg IV + Temador 125 mg/kg PO): 11.9 L/kg
AUCInf [1, 27]: 7144 ng·h/mL
AUClast [1, 27]: 6642 ng·h/mL
AUClast/D [1, 27]: 664 h·ng/mL per mg/kg
AUC—% Extrap—obs [1, 27]: 7.02%
C0 [1, 27]: 2286 ng/mL
Cl_obs [1, 27]: 23.3 mL/min/kg
T1/2 [1, 27]: 6.74 h
AUCInf [1, 36]: 6248 ng·h/mL
AUClast [1, 36]: 5823 ng·h/mL
AUClast/D [1, 36]: 582 h·ng/mL per mg/kg
AUC—% Extrap—obs [1, 36]: 6.80%
C0 [1, 36]: 3042 ng/mL
Cl_obs [1, 36]: 26.7 mL/min/kg
MRTInf—obs [1, 36]: 7.41 h
T1/2 [1, 36]: 7.03 h
Compound: COc1cc2c3c(n(CCCN4CCOCC4)c(=O)c2cc1OC)-c1cc2c(cc1C3=O)OCO2 [LMP400, indotecan]

Compound: COc1cc2c3c(n(CCCN4CCOCC4)c(=O)c2cc1OC)-c1nc2c(cc1C3=O)OCO2 [G101, 2,3-Dimethoxy-6-(3-morpholinopropyl)-5H-[1,3]dioxolo[4″,5″:5′,6′]pyrido[3′,2′:4,5]cyclopenta[1,2-c]isoquinoline-5,12(6H)-dione]
GI50 [2]: 420 nM
GI50 [3]: 460 nM
GI50 [4]: 51 nM
GI50 [5]: 39 nM
GI50 [6]: 4610 nM
GI50 [7]: 2720 nM
GI50 [8]: 150 nM
GI50 [9]: 230 nM
GI50 [10]: 930 nM
